Measured values as given in patent publication US20240277658A1, “NLRP3 ACTIVATORS FOR USE IN THE TREATMENT OF INFECTIOUS DISEASES OR CANCER BY ACTIVATING NLRP3 INFLAMMASOME” (ALBERT-LUDWIGS-UNIVERSITÄT FREIBURG, priority 2020, published 2024).
Where “and” joins values, the source holds several entries; their conditions need not be identical. Equal values may be shown once. Read-outs that look alike come from different tables or passages of the source.

Legend:
BMDCs = assay: LDH release (lytic cell death, pyroptosis) from LPS-primed BMDCs; assay type: cell-based, mouse; conditions: for Average (% positive control): LDH release; for cytotoxicity at 50 µM / cytotoxicity at 25 µM / cytotoxicity at 100 µM / cytotoxicity at 75 µM: Mus musculus, BMDC
Method in brief: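 LDH released into medium, detected colorimetrically, served as the pyroptosis read-out in triplicate. LPS-primed (50 ng ml^−1, 3 h) murine bone marrow-derived dendritic cells received test compounds, typically 50 μM, or nigericin (5 μM), R837 or CL097 (100 μM) for 3 hours.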

NLRP3 inflammasome = molecular target: T1, NLRP3 inflammasome (Mus musculus, UniProt Q8R4B8); assay: IL-1β release from LPS-primed BMDCs (ELISA) as readout of NLRP3 inflammasome activation; assay type: cell-based
T1 construct: endogenous in cells; host or cells: primary mouse bone marrow-derived dendritic cells (BMDCs), LPS-primed
T1 sequence (Q8R4B8 whole entry): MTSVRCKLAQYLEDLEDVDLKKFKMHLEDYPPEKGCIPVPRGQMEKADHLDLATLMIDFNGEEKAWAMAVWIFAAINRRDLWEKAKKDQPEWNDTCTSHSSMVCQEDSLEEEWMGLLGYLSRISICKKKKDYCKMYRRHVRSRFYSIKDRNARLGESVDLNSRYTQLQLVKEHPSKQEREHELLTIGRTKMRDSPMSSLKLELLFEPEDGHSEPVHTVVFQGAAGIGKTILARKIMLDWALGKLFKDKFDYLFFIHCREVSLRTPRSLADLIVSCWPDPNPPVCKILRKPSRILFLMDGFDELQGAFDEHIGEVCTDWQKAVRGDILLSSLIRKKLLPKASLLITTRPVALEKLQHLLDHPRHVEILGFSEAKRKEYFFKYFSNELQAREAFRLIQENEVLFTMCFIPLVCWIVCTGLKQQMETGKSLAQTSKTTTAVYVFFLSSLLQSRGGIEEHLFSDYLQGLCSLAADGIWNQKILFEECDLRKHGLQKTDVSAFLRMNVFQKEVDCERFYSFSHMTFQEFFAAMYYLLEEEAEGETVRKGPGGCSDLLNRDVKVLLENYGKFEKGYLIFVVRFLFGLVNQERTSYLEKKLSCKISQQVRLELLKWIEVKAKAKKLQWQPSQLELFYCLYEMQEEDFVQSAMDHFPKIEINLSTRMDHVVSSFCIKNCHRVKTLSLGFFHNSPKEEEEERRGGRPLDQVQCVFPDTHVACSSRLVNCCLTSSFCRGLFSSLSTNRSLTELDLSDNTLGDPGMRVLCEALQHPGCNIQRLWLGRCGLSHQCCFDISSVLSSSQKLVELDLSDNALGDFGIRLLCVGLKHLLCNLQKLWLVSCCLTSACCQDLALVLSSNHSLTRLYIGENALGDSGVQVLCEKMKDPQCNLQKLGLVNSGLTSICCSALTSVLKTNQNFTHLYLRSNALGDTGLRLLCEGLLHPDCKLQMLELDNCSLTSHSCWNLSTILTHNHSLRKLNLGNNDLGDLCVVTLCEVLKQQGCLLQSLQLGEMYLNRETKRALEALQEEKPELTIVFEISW
Method in brief: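 NLRP3 inflammasome activation was read out as IL-1β released into the supernatant, measured by ELISA. Murine BMDCs were primed with LPS (50 ng ml^−1, 3 hours), then incubated with compounds for 3 hours, with each condition run in three technical replicates. Nigericin at 5 μM acted as the positive control activator, and IL-1β release was also expressed as a percentage of that control.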

[1] = compound 50 μM, positive control nigericin 5 μM
[2] = compound 50 μM, LPS-primed BMDCs, read-out: Average LDH release (% of max.)
[3] = single replicates, compound 50 μM, LPS-primed BMDCs, read-out: LDH release (% of max.)
[4] = IL-1β release, compound 50 μM, positive control nigericin 5 μM
[5] = compound 50 μM, LPS-primed BMDCs
[6] = single replicates, compound 50 μM, LPS-primed BMDCs

Compound | Average (% positive control) (BMDCs; [1]) | cytotoxicity at 50 µM (BMDCs; [2]) [%] | cytotoxicity at 50 µM (BMDCs; [3]) [%] | Average (% positive control) (NLRP3 inflammasome; [4]) | Average IL-1β (NLRP3 inflammasome; [5]) [ng/mL] | IL-1β (NLRP3 inflammasome; [6]) | also measured
CN1C(=O)c2ccc(NC(=O)Nc3ccccc3)cc2C1=O [L01.128, 3-(2-methyl-1,3-dioxo-2,3-dihydro-1H-iso-indol-5-yl)-1-phenyl-urea] | 16.086 | 11.8 | 12.1 | 5.819 | 0.417 | 0.456 ng/mL and 0.394 ng/mL and 0.402 ng/mL | 
O=C(NCc1nc(-c2ccsc2)no1)Nc1cc(Cl)cc(Cl)c1 [L01.115, 1-(3,5-dichlorophenyl)-3-{[3-(thiophen-3-yl)-1,2,4-oxadiazol-5-yl]-methyl}urea] | 30.346 | 22.2 | 23.6 | 1.584 | 0.114 | 0.122 ng/mL and 0.108 ng/mL and 0.111 ng/mL | 
O=C(Nc1cccc(S(=O)(=O)C2CCCC2)c1)N1CCCCC1c1nc(-c2ccccc2)no1 (stereo not shown) [L01.099, N-[3-(cyclopentane-sulfonyl)phenyl]-2-(3-phenyl-1,2,4-oxadiazol-5-yl)piperidine-1-carboxamide] | 13.410 | 9.81 | 10.6 | 0.932 | 0.067 | 0.074 ng/mL and 0.067 ng/mL and 0.059 ng/mL | 
CC(=O)Nc1ccc(NC(=O)Nc2ccccc2)cc1 [L01.109, N-{4-[(phenylcarbamo-yl)amino]phenyl}acet-amide] | 10.912 | 7.98 | 8.46 | 1.269 | 0.091 | 0.120 ng/mL and 0.083 ng/mL and 0.070 ng/mL | 
O=C(NCc1nc(-c2cccnc2)no1)Nc1ccc([N+](=O)[O-])cc1Cl [L01.042, 1-(2-chloro-4-nitrophen-yl)-3-{[3-(pyridin-3-yl)-1,2,4-oxadiazol-5-yl]-methyl}urea] | 9.993 | 7.31 | 7.09 | 0.826 | 0.059 | 0.060 ng/mL and 0.069 ng/mL and 0.048 ng/mL | 
Cc1ccc(NC(=O)Nc2ccccc2)cc1F [L01.124, 3-(3-fluoro-4-methyl-phenyl)-1-phenylurea] | 19.235 | 14.1 | 14.1 | 13.268 | 0.951 | 0.928 ng/mL and 0.902 ng/mL and 1.024 ng/mL | 
COc1ccc(NC(=O)Nc2ccccc2)cc1Cl [L01.026, 3-(3-chloro-4-methoxy-phenyl)-1-phenylurea] | 14.776 | 10.8 | 9.23 | 6.911 | 0.495 | 0.452 ng/mL and 0.473 ng/mL and 0.562 ng/mL | 
O=C(NCc1nc(-c2cccnc2)no1)Nc1cccc2cnccc12 [L01.062, 1-(isoquinolin-5-yl)-3-{[3-(pyridin-3-yl)-1,2,4-oxadiazol-5-yl]-methyl}urea] | 18.117 | 13.3 | 13.4 | 1.141 | 0.082 | 0.084 ng/mL and 0.087 ng/mL and 0.074 ng/mL | 
CC(C)C(NC(=O)Nc1cccc(C(F)(F)F)c1)c1nc(-c2cccnc2)no1 (stereo not shown) [L01.005, 3-{2-methyl-1-[3-(pyridin-3-yl)-1,2,4-oxadiazol-5-yl]propyl}-1-[3-(trifluoromethyl)-phenyl]urea] | 20.238 | 14.8 | 9.31 | 0.980 | 0.070 | 0.053 ng/mL and 0.074 ng/mL and 0.084 ng/mL | 
O=C(Nc1ccccc1)Nc1ccc2c(c1)CCC2 [L01.066, 3-(2,3-dihydro-1H-inden-5-yl)-1-phenyl-urea] | 19.592 | 14.3 | 15.6 | 3.698 | 0.265 | 0.346 ng/mL and 0.256 ng/mL and 0.193 ng/mL | 
Cc1ccc(NC(=O)Nc2ccccc2)cc1NC(=O)NC(C)C [L01.041, 3-(4-methyl-3-[(propan-2-yl)carbamoylamino}-phenyl)-1-phenylurea] | 32.832 | 24 | 24.4 | 23.826 | 1.708 | 1.508 ng/mL and 1.847 ng/mL and 1.769 ng/mL | 
CCOc1ccc(NC(=O)NCc2nc(-c3cccc(OC)c3)no2)cc1OCC [L01.013, 1-(3,4-diethoxyphenyl)-3-{[3-(3-methoxyphen-yl)-1,2,4-oxadiazol-5-yl]methyl}urea] | 10.303 | 7.54 | 8.75 | 1.677 | 0.120 | 0.118 ng/mL and 0.126 ng/mL and 0.117 ng/mL | 
O=C(NCc1ccccc1)NCc1ccc2ncccc2c1 [EN11-11, 3-benzyl-1-[(quinolin-6-yl)methyl]urea] |  |  |  |  |  |  | Average (% positive control) (BMDCs; 25 μM, positive control EN22 25 μM): 8.741 % positive control; Average (% positive control) (BMDCs; 50 μM, positive control EN22 25 μM): 8.257 % positive control; Average (% positive control) (BMDCs; 100 μM, positive control EN22 25 μM): 10.723 % positive control; cytotoxicity at 25 µM (BMDCs; 25 μM, EN11 series table, read-out: Average LDH release (% of max.)): 4.45%; cytotoxicity at 50 µM (BMDCs; 50 μM, EN11 series table, read-out: Average LDH release (% of max.)): 4.2%; cytotoxicity at 100 µM (BMDCs; 100 μM, individual replicate values, read-out: LDH release (% of max.)): 5.91%; cytotoxicity at 100 µM (BMDCs; 100 μM, read-out: Average LDH release (% of max.)): 5.45%; Average IL-1β (NLRP3 inflammasome; 25 μM, EN11 series table): 0.000 ng/mL; IL-1β (NLRP3 inflammasome; 25 μM, individual replicate values, EN11 series table): 0.000 ng/mL; Average IL-1β (NLRP3 inflammasome; 50 μM, EN11 series table): 0.014 ng/mL; IL-1β (NLRP3 inflammasome; 50 μM, individual replicate values, EN11 series table): 0.021 ng/mL and 0.022 ng/mL and 0.000 ng/mL; Average IL-1β (NLRP3 inflammasome; 100 μM): 0.011 ng/mL; IL-1β (NLRP3 inflammasome; 100 μM, individual replicate values): 0.012 ng/mL and 0.021 ng/mL and 0.000 ng/mL; Average (% positive control) (NLRP3 inflammasome; IL-1β, 25 μM, positive control EN22 25 μM): 0.000 % positive control; Average (% positive control) (NLRP3 inflammasome; IL-1β, 50 μM, positive control EN22 25 μM): 0.975 % positive control; Average (% positive control) (NLRP3 inflammasome; IL-1β, 100 μM, positive control EN22 25 μM): 0.761 % positive control
Cc1c(F)cccc1NC(=O)Nc1cccc(Cl)c1 [AH3, 1-(3-chlorophenyl)-3-(3-fluoro-2-methylphenyl) urea] |  |  |  |  |  |  | Average (% positive control) (BMDCs; 25 μM, positive control EN22 10 μM): 16.733 % positive control; Average (% positive control) (BMDCs; 50 μM, positive control EN22 10 μM): 29.496 % positive control; Average (% positive control) (BMDCs; 75 μM, positive control EN22 10 μM): 44.370 % positive control; cytotoxicity at 25 µM (BMDCs; 25 μM, AH series table, read-out: Average LDH release (% of max.)): 12.9%; cytotoxicity at 25 µM (BMDCs; 25 μM, individual replicate values, AH series table, read-out: LDH release (% of max.)): 12.8%; cytotoxicity at 50 µM (BMDCs; 50 μM, AH series table, read-out: Average LDH release (% of max.)): 22.7%; cytotoxicity at 50 µM (BMDCs; 50 μM, individual replicate values, AH series table, read-out: LDH release (% of max.)): 22.2%; cytotoxicity at 75 µM (BMDCs; 75 μM, individual replicate values, read-out: LDH release (% of max.)): 34.6%; cytotoxicity at 75 µM (BMDCs; 75 μM, read-out: Average LDH release (% of max.)): 34.1%; Average IL-1β (NLRP3 inflammasome; 25 μM, AH series table): 0.588 ng/mL; IL-1β (NLRP3 inflammasome; 25 μM, individual replicate values, AH series table): 0.540 ng/mL and 0.630 ng/mL and 0.593 ng/mL; Average IL-1β (NLRP3 inflammasome; 50 μM, AH series table): 1.519 ng/mL; IL-1β (NLRP3 inflammasome; 50 μM, individual replicate values, AH series table): 1.267 ng/mL and 1.615 ng/mL and 1.675 ng/mL; Average IL-1β (NLRP3 inflammasome; 75 μM, AH series table): 2.224 ng/mL; IL-1β (NLRP3 inflammasome; 75 μM, individual replicate values, AH series table): 2.288 ng/mL and 2.351 ng/mL and 2.032 ng/mL; Average (% positive control) (NLRP3 inflammasome; IL-1β, 25 μM, positive control EN22 10 μM): 5.875 % positive control; Average (% positive control) (NLRP3 inflammasome; IL-1β, 50 μM, positive control EN22 10 μM): 15.193 % positive control; Average (% positive control) (NLRP3 inflammasome; IL-1β, 75 μM, positive control EN22 10 μM): 22.240 % positive control
O=C(Nc1ccccc1)Nc1cccc(Br)c1 [L01.020, 3-(3-bromophenyl)-1-phenylurea] | 14.712 | 10.8 | 11.6 | 3.256 | 0.233 | 0.236 ng/mL and 0.231 ng/mL and 0.233 ng/mL | 
